Source: ChEMBL document CHEMBL1821699, “1,5-Disubstituted indole derivatives as selective human neuronal nitric oxide synthase inhibitors” (Bioorg Med Chem Lett, 2011)

Assays:
[1] = target: Nitric oxide synthase, inducible (Homo sapiens, UniProt P35228); assay: Inhibition of human recombinant iNOS expressed in Sf9 cells assessed as conversion of [3H]-L-arginine to [3H]-L-citrulline by radiometric method
Nitric oxide synthase 3 = target: T1, Nitric oxide synthase 3 (Homo sapiens, UniProt P29474); assay: Inhibition of human recombinant eNOS expressed in Sf9 cells assessed as conversion of [3H]-L-arginine to [3H]-L-citrulline by radiometric method
T1 sequence (P29474 whole entry): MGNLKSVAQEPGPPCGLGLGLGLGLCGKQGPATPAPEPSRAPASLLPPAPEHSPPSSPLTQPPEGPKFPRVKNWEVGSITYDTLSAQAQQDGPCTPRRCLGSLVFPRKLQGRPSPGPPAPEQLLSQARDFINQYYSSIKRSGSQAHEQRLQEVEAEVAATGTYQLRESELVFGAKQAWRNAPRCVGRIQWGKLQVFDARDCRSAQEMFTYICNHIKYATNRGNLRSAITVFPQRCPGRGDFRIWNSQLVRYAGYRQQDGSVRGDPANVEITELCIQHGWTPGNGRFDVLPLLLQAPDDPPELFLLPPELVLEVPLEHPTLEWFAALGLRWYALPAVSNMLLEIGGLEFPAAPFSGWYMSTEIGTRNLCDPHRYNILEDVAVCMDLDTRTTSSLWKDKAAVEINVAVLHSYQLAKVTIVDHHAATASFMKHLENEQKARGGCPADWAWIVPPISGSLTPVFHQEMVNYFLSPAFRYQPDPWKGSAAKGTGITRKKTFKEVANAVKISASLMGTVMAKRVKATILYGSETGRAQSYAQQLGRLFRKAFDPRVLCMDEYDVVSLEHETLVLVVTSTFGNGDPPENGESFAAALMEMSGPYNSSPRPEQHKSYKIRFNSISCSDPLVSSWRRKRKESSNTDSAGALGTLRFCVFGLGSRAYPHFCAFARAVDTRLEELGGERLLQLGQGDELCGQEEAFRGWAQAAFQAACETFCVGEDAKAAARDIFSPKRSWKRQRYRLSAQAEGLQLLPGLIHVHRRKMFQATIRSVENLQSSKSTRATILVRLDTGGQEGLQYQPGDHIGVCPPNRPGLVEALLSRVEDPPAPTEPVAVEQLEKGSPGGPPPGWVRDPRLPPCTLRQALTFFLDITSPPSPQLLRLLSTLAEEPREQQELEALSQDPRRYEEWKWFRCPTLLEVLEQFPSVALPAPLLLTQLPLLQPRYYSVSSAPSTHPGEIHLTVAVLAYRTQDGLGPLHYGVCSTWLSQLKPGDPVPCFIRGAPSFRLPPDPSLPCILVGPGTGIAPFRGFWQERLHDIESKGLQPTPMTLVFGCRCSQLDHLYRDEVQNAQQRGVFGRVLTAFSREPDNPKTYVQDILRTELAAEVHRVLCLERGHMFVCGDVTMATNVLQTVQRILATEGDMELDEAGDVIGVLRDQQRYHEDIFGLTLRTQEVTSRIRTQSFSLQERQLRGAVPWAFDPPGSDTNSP

Sequence of Nitric oxide synthase, inducible (P35228 whole entry): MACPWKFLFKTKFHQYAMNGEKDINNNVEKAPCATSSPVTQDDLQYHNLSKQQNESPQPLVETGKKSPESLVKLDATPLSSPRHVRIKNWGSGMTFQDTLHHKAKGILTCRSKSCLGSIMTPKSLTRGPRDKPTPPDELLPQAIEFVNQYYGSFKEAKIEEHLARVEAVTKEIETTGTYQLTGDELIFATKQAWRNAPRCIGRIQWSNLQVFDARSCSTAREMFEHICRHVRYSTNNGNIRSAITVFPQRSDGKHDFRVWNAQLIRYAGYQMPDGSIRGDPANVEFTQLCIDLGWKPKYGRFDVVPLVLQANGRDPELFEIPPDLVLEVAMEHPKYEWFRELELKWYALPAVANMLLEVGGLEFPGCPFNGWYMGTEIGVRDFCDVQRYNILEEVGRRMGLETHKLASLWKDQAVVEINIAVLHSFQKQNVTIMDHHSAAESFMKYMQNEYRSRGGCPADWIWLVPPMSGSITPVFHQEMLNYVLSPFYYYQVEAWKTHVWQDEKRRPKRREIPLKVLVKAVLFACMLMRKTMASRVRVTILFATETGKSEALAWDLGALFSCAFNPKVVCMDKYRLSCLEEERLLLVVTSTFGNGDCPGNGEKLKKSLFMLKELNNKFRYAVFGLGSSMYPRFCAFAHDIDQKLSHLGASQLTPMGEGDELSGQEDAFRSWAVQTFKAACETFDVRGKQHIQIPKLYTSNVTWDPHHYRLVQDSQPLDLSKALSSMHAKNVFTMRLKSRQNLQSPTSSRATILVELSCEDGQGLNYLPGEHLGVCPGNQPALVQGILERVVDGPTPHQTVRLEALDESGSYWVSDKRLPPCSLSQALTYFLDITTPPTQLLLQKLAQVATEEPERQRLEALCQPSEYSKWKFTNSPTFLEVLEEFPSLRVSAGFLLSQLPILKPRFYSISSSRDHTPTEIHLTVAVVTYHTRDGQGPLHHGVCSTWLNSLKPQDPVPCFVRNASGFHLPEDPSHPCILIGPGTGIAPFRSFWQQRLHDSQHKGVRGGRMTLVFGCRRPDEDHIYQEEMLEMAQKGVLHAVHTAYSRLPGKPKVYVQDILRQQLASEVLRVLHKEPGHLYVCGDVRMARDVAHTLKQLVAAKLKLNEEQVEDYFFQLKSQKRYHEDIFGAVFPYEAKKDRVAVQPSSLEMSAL

IC50 [1] [µM]	SMILES	IC50 (Nitric oxide synthase 3) [µM]
4.61	N=C(Nc1ccc2c(ccn2CCN2CCCCC2)c1)c1cccs1	–
15.7	CN(C)CCn1ccc2cc(NC(=N)c3cccs3)ccc21	–
41.6	N=C(Nc1ccc2c(ccn2CCCN2CCOCC2)c1)c1cccs1	–
9.8	CN1CCCCC1CCn1ccc2cc(NC(=N)c3cccs3)ccc21 (stereo not drawn)	–
14	CN1CCCC1CCn1ccc2cc(NC(=N)c3cccs3)ccc21 (racemic)	–

The next lines start with the compound.

SMILES	IC50 [1] [µM]	IC50 (Nitric oxide synthase 3) [µM]
N=C(Nc1ccc2c(ccn2CCCNC23CC4CC(CC(C4)C2)C3)c1)c1cccs1	18	–
N=C(Nc1ccc2c(ccn2CCCNC2CC2)c1)c1cccs1	34	–
CN1CCC[C@H]1CCn1ccc2cc(NC(=N)c3cccs3)ccc21	17	1.92
CN1CCC[C@@H]1CCn1ccc2cc(NC(=N)c3cccs3)ccc21	22	3.37
CN1CCCC(n2ccc3cc(NC(=N)c4ccco4)ccc32)CC1 (single isomer, unassigned; (-))	20	–
CN1CCCC(n2ccc3cc(NC(=N)c4ccco4)ccc32)CC1 (stereo in doubt; (+)-15)	73	–
